Measured values: US4182889A, “Process for preparing 10-methyl-2,9-dioxatricyclo[4,3,1,0^3,7 ] decanes” (Kali-Chemie Pharma GmbH, priority 1977, dated 1980)
Where a name gives a salt, the structure may show the parent alone.

Experiments:
[1] = hexobarbital induced sleep prolongation in mice; format: in vivo; settings: white mice; oral dosages starting at 10 mg/kg; dose dependent
Procedure: For example, they effect a significant increase of the duration of hexobarbital induced sleep in mice upon oral administration of from 1 to 100 mg/kg body weight. Electroencephalographical tests in rats show an increase of the classical and the paradoxical sleep phases upon oral administration of from 1 to 100 mg/kg body weight.
(§1) The hydrochloride of formula II, test substance number 1973, and the hydrogentartrate of formula II, test substance number 2961, have been used for pharmacological testing.

[2] = anticonvulsive activity in the screening in white mice; format: in vivo; settings: oral dosages starting at 10 mg/kg
Source text: as §1

toxicity in mice (LD50) = settings: mouse, in vivo

| Structure (SMILES) | increase of the duration of hexobarbital induced sleep [1] | anticonvulsive activity [2] | LD50 (toxicity in mice (LD50); ip) [mg/kg] | LD50 (toxicity in mice (LD50); po) [mg/kg] |
| --- | --- | --- | --- | --- |
| COC1OC2OC3(CN4CCCCC4)C(O)CC(C2C)C13 (stereo not drawn) [test substance number 1973, 3-piperidinomethyl-4β-hydroxy-8-methoxy-10β-methyl-2,9-dioxatricyclo[4,3,1,0^3,7] decane hydrochloride] | remarkable increase | do not exhibit any anticonvulsive activity | 406 | 1140 |
| COC1OC2OC3(CN4CCCCC4)C(O)CC(C2C)C13 (stereo not drawn) [test substance number 2961, 3-piperidinomethyl-4β-hydroxy-8-methoxy-10β-methyl-2,9-dioxatricyclo-[4,3,1,0^3,7] decane hydrogentartrate] | remarkable increase | do not exhibit any anticonvulsive activity | – | – |
